{
  "source": "ChEMBL document CHEMBL5260858",
  "about": "“Targeting mycobacterial membranes and membrane proteins: Progress and limitations” (Bioorg Med Chem, 2023)",
  "key": {"[1]": {"system": "Mycobacterium tuberculosis", "test": "Antitubercular activity against Mycobacterium tuberculosis H37Rv assessed as bacterial growth inhibition and measured upto 14 days by microplate alamar blue assay", "format": "functional", "settings": "336 h, time <= 14 day"}, "[2]": {"system": "Mycobacterium tuberculosis", "test": "Antitubercular activity against Mycobacterium tuberculosis mc2 7000 assessed as bacterial growth inhibition incubated for 6 days by resazurin based fluorescence assay", "format": "functional", "settings": "mc2 7000, 144 h, time 6 day"}, "[3]": {"system": "Mycobacterium tuberculosis", "test": "Antitubercular activity against Mycobacterium tuberculosis H37Rv expressing GFP assessed as bacterial growth inhibition by measuring GFP fluorescence incubated for 72 hrs by fluorescence analysis", "format": "functional"}, "[4]": {"system": "Mycobacterium tuberculosis", "test": "Antitubercular activity against Mycobacterium tuberculosis H37Rv infected in human THP-1 cells assessed as bacterial growth inhibition incubated for 48 hrs by PrestoBlue staining based fluorescence analysis", "format": "functional, organism-based", "settings": "THP-1, 48 h"}, "[5]": {"system": "Mycobacterium tuberculosis", "test": "Antitubercular activity against Mycobacterium tuberculosis H37Rv assessed as bacterial growth inhibition incubated for 7 days by resazurin reduction microplate assay", "format": "functional", "settings": "168 h, time 7 day"}, "[6]": {"system": "Mycobacterium tuberculosis", "test": "Antitubercular activity against Mycobacterium tuberculosis H37Rv assessed as bacterial growth inhibition incubated for 6 days by resazurin based fluorescence assay", "format": "functional", "settings": "144 h, time 6 day"}, "[7]": {"system": "Mycobacterium tuberculosis", "test": "Antitubercular activity against Mycobacterium tuberculosis H37Rv assessed as bacterial growth inhibition by REMA analysis", "format": "functional"}, "[8]": {"system": "Mycobacterium tuberculosis", "test": "Antitubercular activity against Mycobacterium tuberculosis H37Rv infected in human HepG2 cells assessed as reduction in colony forming unit by CFU analysis", "format": "functional, organism-based"}, "[9]": {"system": "Mycobacterium tuberculosis", "test": "Antitubercular activity against Mycobacterium tuberculosis H37Rv assessed as bacterial growth inhibition", "format": "functional"}, "[10]": {"system": "Mycobacterium tuberculosis", "test": "Antitubercular activity against Mycobacterium tuberculosis MDR_CHUV assessed as bacterial growth inhibition by REMA analysis", "format": "functional"}, "[11]": {"system": "Mycobacterium tuberculosis", "test": "Antitubercular activity against Mycobacterium tuberculosis H37Rv assessed as bacterial growth inhibition incubated for 6 days by resazurin reduction microplate assay", "format": "functional", "settings": "144 h, time 6 day"}, "[12]": {"system": "Mycobacterium tuberculosis", "test": "Antitubercular activity against Mycobacterium tuberculosis H37Rv infected in BALB/c mouse assessed as reduction in bacterial load at 100 mg/kg, po for 10 days by CFU analysis", "format": "functional", "settings": "time 10 day"}, "[13]": {"system": "Mycobacterium tuberculosis", "test": "Antitubercular activity against Mycobacterium tuberculosis H37Rv assessed as bacterial growth inhibition incubated for 24 hrs by [14C]-acetate labelling based radiometric analysis", "format": "functional"}, "[14]": {"system": "Mycobacterium tuberculosis", "test": "Antitubercular activity against Mycobacterium tuberculosis H37Rv ATCC25618 assessed as bacterial growth inhibition incubated for 6 days by resazurin based fluorescence analysis", "format": "functional", "settings": "H37Rv ATCC25618, 144 h, time 6 day"}, "[15]": {"system": "Mycobacterium tuberculosis", "test": "Antitubercular activity against Mycobacterium tuberculosis assessed as bacterial growth inhibition", "format": "functional"}, "[16]": {"system": "Mycobacterium tuberculosis", "test": "Antimycobacterial activity against Mycobacterium tuberculosis H37Rv assessed as bacterial growth inhibition incubated for 6 days by resazurin dye based assay", "format": "functional", "settings": "144 h, time 6 day"}, "[17]": {"system": "Mycobacterium tuberculosis", "test": "Antimycobacterial activity against Mycobacterium tuberculosis H37Rv ATCC27294 assessed as bacterial growth inhibition incubated for 7 days by microplate Alamar blue assay", "format": "functional", "settings": "H37Rv ATCC27294, 168 h, time 7 day"}, "[18]": {"system": "Mycobacterium tuberculosis", "test": "Antitubercular activity against Mycobacterium tuberculosis H37Rv infected in human monocyte macrophage assessed as bacterial growth inhibition and measured after 21 days by colony counting based analysis", "format": "functional", "settings": "504 h, time 21 day"}, "[19]": {"system": "Mycobacteroides abscessus", "test": "Antitubercular activity against Mycobacterium abscessus CIP104536 assessed as bacterial growth inhibition incubated 3 to 5 days by resazurin based broth microdilution method", "format": "functional", "settings": "time 3-5 day"}, "[20]": {"system": "Mycobacterium tuberculosis", "test": "In vivo antimycobacterial activity against Mycobacterium tuberculosis H37Rv infected in BALB/c mouse assessed as reduction in log10 CFU in lungs at 50 mg/kg, po and measured after 4 weeks", "format": "functional"}, "[21]": {"system": "Mycobacterium tuberculosis", "test": "In vivo antimycobacterial activity against Mycobacterium tuberculosis H37Rv infected in BALB/c mouse assessed as reduction in log10 CFU in lungs at 12.5 mg/kg, po and measured after 4 weeks", "format": "functional"}, "[22]": {"system": "Mycobacterium tuberculosis", "test": "Antitubercular activity against Mycobacterium tuberculosis H37Rv assessed as bacterial growth inhibition by microdilution method", "format": "functional"}},
  "data": [
    {"smiles": "Cc1cc(C)c2cc(C(=O)NC3CCCCC3)[nH]c2c1", "values": [
      {"measurement": "MIC", "setting": "[1]", "value": 0.125, "unit": "µg/mL"}
    ]},
    {"smiles": "CCOC(=O)c1c(-c2ccccc2)oc2ccc(O)c(CN3CCCCC3)c12", "values": [
      {"measurement": "MIC", "setting": "[2]", "value": 0.4, "unit": "µM"}
    ]},
    {"smiles": "CCCn1cnc2cc(NCc3ccc(Cl)cc3Cl)ccc21", "values": [
      {"measurement": "IC90", "setting": "[3]", "value": 16, "unit": "µM"}
    ]},
    {"smiles": "CCSc1nc(NC)c2cccc(F)c2n1", "values": [
      {"measurement": "IC50", "setting": "[4]", "value": 0.013, "unit": "µg/mL"},
      {"measurement": "MIC", "setting": "[5]", "value": 0.04, "unit": "µg/mL"}
    ]},
    {"smiles": "CCc1ccc([C@H]2C[C@@H](C(F)(F)F)n3ncc(C(=O)NCc4ccc(OC)cc4)c3N2)cc1", "values": [
      {"measurement": "MIC", "setting": "[6]", "value": 0.25, "unit": "µM"}
    ]},
    {"smiles": "CC(C)(C)c1ccc(Cn2cnc([N+](=O)[O-])n2)cc1", "values": [
      {"measurement": "IC90", "setting": "[3]", "value": 0.5, "unit": "µM"}
    ]},
    {"smiles": "CCOC(=O)c1nc2ccc(C(F)(F)F)cc2nc1NCc1ccc(OC)cc1", "values": [
      {"measurement": "MIC99", "setting": "[7]", "value": 3.1, "unit": "µM"},
      {"measurement": "IC50", "setting": "[8]", "value": 6.1, "unit": "µM"}
    ]},
    {"smiles": "CCOc1ccc(CNc2nc3cc(C(F)(F)F)ccc3nc2C(=O)O)cc1", "values": [
      {"measurement": "MIC99", "setting": "[7]", "value": 3.1, "unit": "µM"}
    ]},
    {"smiles": "O=c1nc(N2CCN(CC3CCCCC3)CC2)sc2c([N+](=O)[O-])cc(C(F)(F)F)cc12", "note": "[MACOZINONE]", "values": [
      {"measurement": "MIC99", "setting": "[9]", "value": 0.003, "unit": "µg/mL"},
      {"measurement": "MIC99", "setting": "[10]", "value": 0.0004, "unit": "µg/mL"}
    ]},
    {"smiles": "O=c1nc(N2CCN(CCC3CCCCC3)CC2)sc2c([N+](=O)[O-])cc(C(F)(F)F)cc12", "values": [
      {"measurement": "MIC", "setting": "[7]", "value": 0.00019, "unit": "µg/mL"}
    ]},
    {"smiles": "O=C(/C=C/c1ccccc1)N1CCN(Cc2ccc3c(c2)OCO3)CC1", "values": [
      {"measurement": "IC50", "setting": "[4]", "value": 0.3, "unit": "µg/mL"},
      {"measurement": "MIC", "setting": "[11]", "value": 0.2, "unit": "µg/mL"},
      {"measurement": "Activity", "setting": "[12]", "value": 0.9, "unit": "log10CFU"}
    ]},
    {"smiles": "CCCCCCCCn1cc(CN2CCC3(CC2)OCCCO3)c2ccc(OC)cc21", "values": [
      {"measurement": "MIC50", "setting": "[9]", "value": 0.5, "unit": "µM"}
    ]},
    {"smiles": "O=c1c(NCc2ccccn2)c(-c2ccc(N3CCOCC3)cc2)c1=O", "values": [
      {"measurement": "MIC", "setting": "[9]", "value": 0.016, "unit": "µg/mL"}
    ]},
    {"smiles": "CCOC(=O)c1c(-c2ccccc2)oc2ccc(O)c(CN3CCC(C)CC3)c12", "values": [
      {"measurement": "MIC", "setting": "[2]", "value": 2.3, "unit": "µM"}
    ]},
    {"smiles": "CCc1ccc([C@H]2C[C@@H](C(F)(F)F)n3ncc(C(=O)NCc4ccc(F)cc4)c3N2)cc1", "values": [
      {"measurement": "MIC", "setting": "[13]", "value": 0.16, "unit": "µM"}
    ]},
    {"smiles": "CNC(=O)c1c(-c2ccccc2)oc2ccc(O)c(CN3CCCCC3)c12", "values": [
      {"measurement": "MIC", "setting": "[2]", "value": 0.2, "unit": "µM"}
    ]},
    {"smiles": "CCCCCc1ccc(NC(=O)COc2cc(C)nc3ccc(OC)cc23)cc1", "values": [
      {"measurement": "MIC", "setting": "[14]", "value": 0.02, "unit": "µg/mL"}
    ]},
    {"smiles": "CN1CCN(CCCN2c3ccccc3Sc3ccc(C(F)(F)F)cc32)CC1", "note": "[TRIFLUOPERAZINE]", "values": [
      {"measurement": "MIC", "setting": "[15]", "value": 5, "unit": "µg/mL"}
    ]},
    {"smiles": "O=c1nc(N2CCN(S(=O)(=O)C3CC3)CC2)sc2c([N+](=O)[O-])cc(C(F)(F)F)cc12", "values": [
      {"measurement": "MIC", "setting": "[16]", "value": 0.003, "unit": "µg/mL"}
    ]},
    {"smiles": "CCCc1ccc(NC(=O)COc2cc(C)nc3ccc(OC)cc23)cc1", "values": [
      {"measurement": "MIC", "setting": "[14]", "value": 0.02, "unit": "µg/mL"}
    ]},
    {"smiles": "O=c1nc(N2CC3CN(Cc4ccc(Cl)c(F)c4)CC3C2)sc2c([N+](=O)[O-])cc(C(F)(F)F)cc12", "note": "(stereo not drawn)", "values": [
      {"measurement": "MIC", "setting": "[17]", "value": "< 0.035", "unit": "µM"}
    ]},
    {"smiles": "FC(F)(F)c1ccc2c(c1)N(CCC[P+](c1ccccc1)(c1ccccc1)c1ccccc1)c1ccccc1S2.[Cl-]", "values": [
      {"measurement": "MIC50", "setting": "[9]", "value": 1, "unit": "µg/mL"}
    ]},
    {"smiles": "O=c1nc(N2CCN(CCCCOc3ccccc3)CC2)sc2c([N+](=O)[O-])cc(C(F)(F)F)cc12", "values": [
      {"measurement": "MIC", "setting": "[7]", "value": 0.0015, "unit": "µg/mL"}
    ]},
    {"smiles": "Cc1cc2nc(CCC3CCCCC3)[nH]c2cc1C", "values": [
      {"measurement": "MIC99", "setting": "[18]", "value": 0.145, "unit": "µM"}
    ]},
    {"smiles": "OC1(c2ccc(Cl)c(C(F)(F)F)c2)CCN(Cc2ccccc2I)CC1", "values": [
      {"measurement": "MIC99", "setting": "[19]", "value": 0.125, "unit": "µg/mL"}
    ]},
    {"smiles": "CC1(C)CCC(NC(=O)c2cc3c(F)cc(F)cc3[nH]2)CC1", "values": [
      {"measurement": "Activity", "setting": "[20]", "value": 3.4, "unit": "log10CFU"},
      {"measurement": "Activity", "setting": "[21]", "value": 0.9, "unit": "log10CFU"}
    ]},
    {"smiles": "CSc1ccc2c(c1)N(CCC1CCCCN1C)c1ccccc1S2", "note": "(stereo not drawn) [THIORIDAZINE]", "values": [
      {"measurement": "MIC", "setting": "[9]", "value": 15, "unit": "µg/mL"}
    ]},
    {"smiles": "CCc1nc2ccc(Cl)cn2c1C(=O)NCc1ccc(N2CCC(c3ccc(OC(F)(F)F)cc3)CC2)cc1", "note": "[TELACEBEC]", "values": [
      {"measurement": "MIC", "setting": "[9]", "value": 0.0027, "unit": "µM"}
    ]},
    {"smiles": "COc1ccc(CNc2nc3cc(C(F)(F)F)ccc3nc2C(=O)O)cc1", "values": [
      {"measurement": "MIC99", "setting": "[7]", "value": 3.1, "unit": "µM"},
      {"measurement": "IC50", "setting": "[8]", "value": 2.5, "unit": "µM"}
    ]},
    {"smiles": "COC(=O)c1c(NC(=O)c2c(F)c(F)c(F)c(F)c2F)sc(C(N)=O)c1C", "values": [
      {"measurement": "MIC", "setting": "[22]", "value": 0.5, "unit": "µM"}
    ]},
    {"smiles": "O=c1nc(N2CC3CN(Cc4ccc(OC(F)(F)F)cc4)CC3C2)sc2c([N+](=O)[O-])cc(C(F)(F)F)cc12", "note": "(stereo not drawn)", "values": [
      {"measurement": "MIC", "setting": "[17]", "value": "< 0.035", "unit": "µM"}
    ]}
  ]
}
